Data set [1] is described as follows: The compound was evaluated for rate constant at 70 deg. C. Format: ADME.
Data set [2] is described as follows: The compound was evaluated for half life at 70 deg. C. Format: ADME.

In turn, `O=C(c1ccccc1)N1CC#Cc2ccccc2C#CCC1` returned a Rate constant in data set [1] of 0.0037 h⁻¹. Besides, in data set [2], the half-life was 188 h.
For `O=C(c1ccc([N+](=O)[O-])cc1)N1CC#Cc2ccccc2C#CCC1` the same measures were 0.0051 h⁻¹ and 136 h.
For `O=[N+]([O-])c1ccc(S(=O)(=O)N2CC#Cc3ccccc3C#CCC2)cc1` the same measures were 0.0143 h⁻¹ and 49 h.
As for `O=[N+]([O-])c1ccc(S(=O)(=O)N2CC#Cc3ccccc3C#CCC2)c([N+](=O)[O-])c1`, in data set [1], the Rate constant was found to be 0.0244 h⁻¹. In addition, the half-life in data set [2] was 28 h.

One may read the half-life as how long it takes for the measured level to halve.

Values taken from ChEMBL document CHEMBL1135240, “Benzene fused monocyclic enediynyl amides: synthesis, reactivity and DNA-cleavage activity in comparison to the corresponding sulfonamides” (Bioorg Med Chem Lett, 2002).
